According to patent US9840513B2 (AbbVie S.à.r.l., priority 2015, dated 2017):

What was measured:
[1] = target: T1, F508delCFTR in primary hBE cells with F508del/F508del CFTR mutation (Homo sapiens, UniProt P13569, DEL508-508); assay: Transepithelial Clamp Circuit on Human Bronchial Epithelial Cells Conductance Assay (hBE-TECC); type: cell-based; details: for EC50: primary hBE cells F508del/F508del, 18-24 hours at 37° C., equivalent short circuit current, 6 concentrations
T1 construct: cells isolated from CF patients with the homozygous mutation; endogenous in cells; host or cells: primary human bronchial epithelial (hBE) cells from F508del/F508del CF patients
Text: Transepithelial Clamp Circuit on Human Bronchial Epithelial Cells Conductance Assay:
A cell based assay using the primary human bronchial epithelial cells (hBE) was used as a secondary assay to test novel F508delCFTR correctors for their activity on primary hBE cells with F508del/F508del CFTR mutation. The assay used a TECC-24 (Transepithelial Clamp Circuit for 24 wells) instrument that measures the functionality of the mutated channel by measuring the equivalent short circuit current (Ieq) generated by the polarized epithelial cells. The instrument works by measuring the transepithelial potential difference (Vt) and transepithelial resistance (Rt) in an open circuit format, and the Ieq is calculated by using Ohms law (Ieq=Vt/Rt). The assay was run in a 24-well format and all 24-wells were measured at the same time point giving a higher throughput for this assay.
Primary human bronchial epithelial (hBE) cells from F508del/F508delCFTR patients were expanded from 1×10^6 to 250×10^6 cells (Neuberger T, Burton B, Clark H and VanGoor F; Cystic Fibrosis, Methods in Mole Biol 741; eds. Amaral M D and Kunzelmann K, 2011). For this purpose, cells isolated from CF patients with the homozygous mutation were seeded onto 24 well Corning (Cat #3378) filter plates that were coated with 3T3 conditioned media and grown at an air-liquid interface for 35 days using an Ultroser® G supplemented differentiation media. Apical surface mucus was removed 72 hours before the experiment using 3 mM dithiothreitol (DTT) in phosphate buffered saline (PBS). The apical surface was washed again 24 hours before the experiment using PBS. The cells were incubated with the desired dose response of the corrector compounds 18-24 hours at 37° C., 5% CO2. The corrector compounds are only added on the basolateral side of the epithelial cells.
On the day of measuring the corrector activity on the TECC, the cells were switched into a bicarbonate and serum free F-12 Coon's medium and allowed to equilibrate for 90 minutes in a CO2 free incubator. At the time of measurement, the apical and basolateral sides of the filter were bathed with the F-12 Coon's modification media (with 20 mM 4-(2-hydroxyethyl)-1-piperazineethanesulfonic acid (HEPES), pH 7.4 (using 1 M tris(hydroxymethyl)aminomethane (Tris)), and the measurements were made at 36.5° C. Transepithelial voltage (Vt) and transepithelial resistance (Rt) were measured using a 24 channel transepithelial current clamp (TECC-24). Current responses to the sequential addition of benzamil (apical 6 μM addition; for inhibiting epithelial ENaC channel), forskolin (apical and basolateral 10 μM addition; for activating the CFTR channel), control potentiator (N-(3-carbamoyl-5,5,7,7-tetramethyl-4,7-dihydro-5H-thieno[2,3-c]pyran-2-yl)-1H-pyrazole-5-carboxamide; apical and basolateral […] addition; for potentiating the CFTR channel) and bumetanide (basolateral 20 μM addition; for inhibiting the Na:2Cl:K co-transporter, an indirect measure of inhibiting the Cl-secretion driven by CFTR channel) were measured.
All plates contained negative controls (dimethyl sulfoxide, DMSO) which coupled with the control potentiator (N-(3-carbamoyl-5,5,7,7-tetramethyl-4,7-dihydro-5H-thieno[2,3-c]pyran-2-yl)-1H-pyrazole-5-carboxamide) sets the null response and positive controls (3 μM of 3-[(2R,4R)-4-({[1-(2,2-difluoro-1,3-benzodioxol-5-yl)cyclopropyl]carbonyl}amino)-7-methoxy-3,4-dihydro-2H-chromen-2-yl]benzoic acid) coupled with the control potentiator sets the 100% response to measure the correction of the mutated CFTR channel. The maximum percent activity is reported relative to the positive control value.
The % activity measured at each of the 6 test concentrations of the test compound was normalized to the on-plate positive control using the following formula: % activity=[[…]]*100 […]

[2] = target: T2, F508delCFTR cell surface expression in CFBE41o-F508delCFTR-HRP cells (Homo sapiens, UniProt P13569, DEL508-508); assay: Cell Surface Expression-Horse Radish Peroxidase (CSE-HRP) Assay; type: cell-based; details: for EC50: CFBE41o-F508delCFTR-HRP cells, 18-24 hours at 33° C., 8-point curve, highest concentration 20 μM; for Maximum % activity (%): maximum at any tested concentration, normalized to on-plate positive control (3 μM)
T2 construct: fused on or other part: Horseradish peroxidase (HRP) reporter inserted in the fourth exofacial (extracellular) loop of CFTR; expression is doxycycline-inducible
Outline: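 Correctors incubated 18-24 h at 33 °C on doxycycline-induced (0.5 μg/mL, 72 h) CFBE41o-F508delCFTR-HRP cells, 3-fold series from 20 μM. After DPBS washes, luminol luminescence read; activity expressed relative to DMSO and a 3 μM positive control, EC50 fitted from triplicate plates.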

[3] = relative to positive control (3 μM) coupled with control potentiator

T2 sequence (P13569 with tags, fused parts or gaps DEL508-508 limits assumed): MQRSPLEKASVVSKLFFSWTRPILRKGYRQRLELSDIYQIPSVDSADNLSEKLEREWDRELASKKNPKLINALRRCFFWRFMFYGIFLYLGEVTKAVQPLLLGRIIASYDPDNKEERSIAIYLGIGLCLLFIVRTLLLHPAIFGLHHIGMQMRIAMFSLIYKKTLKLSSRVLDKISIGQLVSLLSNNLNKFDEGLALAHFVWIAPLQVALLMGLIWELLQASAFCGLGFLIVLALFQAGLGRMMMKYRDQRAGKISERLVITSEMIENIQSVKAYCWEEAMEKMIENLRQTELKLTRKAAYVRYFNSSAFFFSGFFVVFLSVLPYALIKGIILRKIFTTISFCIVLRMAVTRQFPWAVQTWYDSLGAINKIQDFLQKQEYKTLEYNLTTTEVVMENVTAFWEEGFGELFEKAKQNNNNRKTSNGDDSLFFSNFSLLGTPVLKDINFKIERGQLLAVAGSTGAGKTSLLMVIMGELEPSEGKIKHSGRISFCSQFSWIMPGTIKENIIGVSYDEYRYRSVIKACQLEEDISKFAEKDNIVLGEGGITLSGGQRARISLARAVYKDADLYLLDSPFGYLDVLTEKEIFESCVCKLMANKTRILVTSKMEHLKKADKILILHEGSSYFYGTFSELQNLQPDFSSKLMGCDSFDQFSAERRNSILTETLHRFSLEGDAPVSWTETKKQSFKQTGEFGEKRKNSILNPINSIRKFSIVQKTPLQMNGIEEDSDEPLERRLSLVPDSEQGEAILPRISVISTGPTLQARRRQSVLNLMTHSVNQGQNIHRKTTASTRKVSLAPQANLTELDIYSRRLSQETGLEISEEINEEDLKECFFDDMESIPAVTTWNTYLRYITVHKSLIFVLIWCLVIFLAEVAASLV
T2 sequence (P13569 919-1480 limits assumed, stated change not applied): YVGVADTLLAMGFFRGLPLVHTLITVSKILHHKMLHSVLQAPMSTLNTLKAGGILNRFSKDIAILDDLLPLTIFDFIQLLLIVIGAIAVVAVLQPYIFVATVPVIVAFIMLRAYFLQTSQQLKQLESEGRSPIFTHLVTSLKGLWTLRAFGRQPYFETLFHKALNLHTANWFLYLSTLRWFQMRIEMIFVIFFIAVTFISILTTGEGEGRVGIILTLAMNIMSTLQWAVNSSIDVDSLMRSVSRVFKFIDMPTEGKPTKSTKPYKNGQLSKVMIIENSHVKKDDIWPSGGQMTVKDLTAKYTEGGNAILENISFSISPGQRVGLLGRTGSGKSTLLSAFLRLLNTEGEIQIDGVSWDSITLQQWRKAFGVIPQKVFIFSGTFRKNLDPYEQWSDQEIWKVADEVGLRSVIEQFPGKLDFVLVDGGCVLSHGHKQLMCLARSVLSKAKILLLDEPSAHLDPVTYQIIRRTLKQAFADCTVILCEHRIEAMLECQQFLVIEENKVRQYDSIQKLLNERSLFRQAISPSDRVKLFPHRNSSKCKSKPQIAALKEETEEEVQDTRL
T1 sequence (P13569 with tags, fused parts or gaps DEL508-508): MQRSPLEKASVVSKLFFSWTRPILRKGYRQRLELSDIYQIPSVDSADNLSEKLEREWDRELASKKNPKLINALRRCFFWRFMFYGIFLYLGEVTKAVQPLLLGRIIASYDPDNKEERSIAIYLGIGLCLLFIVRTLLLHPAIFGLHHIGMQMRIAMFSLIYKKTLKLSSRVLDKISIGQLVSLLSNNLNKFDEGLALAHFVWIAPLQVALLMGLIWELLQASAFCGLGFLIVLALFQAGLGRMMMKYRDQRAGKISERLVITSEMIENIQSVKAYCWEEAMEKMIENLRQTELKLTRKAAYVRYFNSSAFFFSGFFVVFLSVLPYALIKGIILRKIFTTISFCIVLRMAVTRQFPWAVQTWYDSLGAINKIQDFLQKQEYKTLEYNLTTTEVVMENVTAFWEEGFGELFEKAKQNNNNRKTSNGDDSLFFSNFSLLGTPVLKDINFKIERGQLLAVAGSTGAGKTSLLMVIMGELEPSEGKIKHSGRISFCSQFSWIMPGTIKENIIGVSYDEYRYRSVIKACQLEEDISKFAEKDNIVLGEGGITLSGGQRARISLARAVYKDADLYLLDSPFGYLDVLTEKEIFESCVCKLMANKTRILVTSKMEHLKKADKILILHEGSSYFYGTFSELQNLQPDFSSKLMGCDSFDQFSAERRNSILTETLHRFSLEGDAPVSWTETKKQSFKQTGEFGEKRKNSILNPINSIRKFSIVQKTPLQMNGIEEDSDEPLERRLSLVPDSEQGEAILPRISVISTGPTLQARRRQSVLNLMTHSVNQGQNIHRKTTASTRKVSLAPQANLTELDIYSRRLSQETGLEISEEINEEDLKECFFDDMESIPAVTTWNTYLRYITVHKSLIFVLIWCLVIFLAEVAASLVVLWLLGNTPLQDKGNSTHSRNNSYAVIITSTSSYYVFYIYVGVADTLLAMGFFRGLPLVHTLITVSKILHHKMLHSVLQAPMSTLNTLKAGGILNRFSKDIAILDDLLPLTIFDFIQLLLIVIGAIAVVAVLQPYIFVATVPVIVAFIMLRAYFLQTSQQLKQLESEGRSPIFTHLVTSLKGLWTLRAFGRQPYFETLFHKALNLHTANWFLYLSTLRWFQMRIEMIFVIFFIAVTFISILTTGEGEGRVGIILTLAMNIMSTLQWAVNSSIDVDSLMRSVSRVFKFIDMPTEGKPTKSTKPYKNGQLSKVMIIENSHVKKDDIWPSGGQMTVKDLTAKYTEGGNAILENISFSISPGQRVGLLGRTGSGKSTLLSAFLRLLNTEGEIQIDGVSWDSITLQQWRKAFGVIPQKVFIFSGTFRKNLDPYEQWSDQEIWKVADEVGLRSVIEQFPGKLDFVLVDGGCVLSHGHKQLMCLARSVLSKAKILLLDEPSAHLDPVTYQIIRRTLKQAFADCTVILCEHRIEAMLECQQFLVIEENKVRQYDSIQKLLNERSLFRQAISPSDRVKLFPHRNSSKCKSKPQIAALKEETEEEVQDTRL

COc1ccc2c(c1)O[C@@H](c1ccc(C(=O)O)cc1)C[C@H]2NC(=O)[C@]1(C)CCc2c1ccc1c2OCO1 [Example 46, 4-[(2R,4R)-7-methoxy-4-{[(6R)-6-methyl-7,8-dihydro-2H,6H-indeno[4,5-d][1,3]dioxole-6-carbonyl]amino}-3,4-dihydro-2H-1-benzopyran-2-yl]benzoic acid]
EC50 [1]: 220 nM
Maximum % activity (%) [1, 3]: 105%
EC50 [2]: 430 nM
Maximum % activity (%) [2]: 142%

Cc1ccc(NC(=O)[C@@]2(C)COc3cc4c(cc32)OC(F)(F)O4)nc1-c1ccc(C(=O)O)cc1 [Example 83, 4-(6-{[(7R)-2,2-difluoro-7-methyl-6,7-dihydro-2H-furo[2,3-f][1,3]benzodioxole-7-carbonyl]amino}-3-methylpyridin-2-yl)benzoic acid]
Maximum % activity (%) ([1]; testing concentration 10 μM): 100%
EC50 [2]: 240 nM
Maximum % activity (%) [2]: 172%

COc1ccc2c(c1)O[C@@H](c1ccc(C(=O)O)cn1)C[C@H]2NC(=O)[C@@]1(C)COc2cc3c(cc21)OC(F)(F)O3 [Example 89, 6-[(2R,4R)-4-{[(7R)-2,2-difluoro-7-methyl-6,7-dihydro-2H-furo[2,3-f][1,3]benzodioxole-7-carbonyl]amino}-7-methoxy-3,4-dihydro-2H-1-benzopyran-2-yl]pyridine-3-carboxylic acid]
Maximum % activity (%) ([1]; testing concentration 1 μM): 84%
EC50 [2]: 10 nM
Maximum % activity (%) [2]: 112%

C[C@]1(C(=O)Nc2cccc(N3CC[C@H](C(=O)O)C3)n2)COc2cc3c(cc21)OC(F)(F)O3 [Example 90, (3S)-1-(6-{[(7R)-2,2-difluoro-7-methyl-6,7-dihydro-2H-furo[2,3-f][1,3]benzodioxole-7-carbonyl]amino}pyridin-2-yl)pyrrolidine-3-carboxylic acid]
Maximum % activity (%) ([1]; testing concentration 1 μM): 65%
EC50 [2]: 620 nM
Maximum % activity (%) [2]: 127%

C[C@]1(C(=O)Nc2ccc(Cl)c(-c3cccc(C(=O)O)c3)n2)COc2cc3c(cc21)OC(F)(F)O3 [Example 95, 3-(3-chloro-6-{[(7R)-2,2-difluoro-7-methyl-6,7-dihydro-2H-furo[2,3-f][1,3]benzodioxole-7-carbonyl]amino}pyridin-2-yl)benzoic acid]
Maximum % activity (%) ([1]; testing concentration 1 μM): 50%
EC50 [2]: 590 nM
Maximum % activity (%) [2]: 167%

CC(C)(CO)c1cc2cc(NC(=O)[C@@]3(C)COc4cc5c(cc43)OC(F)(F)O5)c(F)cc2n1C[C@@H](O)CO [Example 130, (7R)—N-{1-[(2R)-2,3-dihydroxypropyl]-6-fluoro-2-(1-hydroxy-2-methylpropan-2-yl)-1H-indol-5-yl}-2,2-difluoro-7-methyl-6,7-dihydro-2H-furo[2,3-f][1,3]benzodioxole-7-carboxamide]
EC50 [1]: 67 nM
Maximum % activity (%) [1, 3]: 72%
EC50 [2]: 390 nM
Maximum % activity (%) [2]: 105%

C[C@]1(C(=O)Nc2cc3cc(C4(CO)CCC4)n(C[C@@H](O)CO)c3cc2F)COc2cc3c(cc21)OC(F)(F)O3 [Example 134, (7R)—N-{1-[(2R)-2,3-dihydroxypropyl]-6-fluoro-2-[1-(hydroxymethyl)cyclobutyl]-1H-indol-5-yl}-2,2-difluoro-7-methyl-6,7-dihydro-2H-furo[2,3-f][1,3]benzodioxole-7-carboxamide]
EC50 [1]: 197 nM
Maximum % activity (%) [1, 3]: 79%
EC50 [2]: 480 nM
Maximum % activity (%) [2]: 109%

C[C@]1(C(=O)Nc2cc3cc(C4(CO)COC4)n(C[C@@H](O)CO)c3cc2F)COc2cc3c(cc21)OC(F)(F)O3 [Example 135, (7R)—N-{1-[(2R)-2,3-dihydroxypropyl]-6-fluoro-2-[3-(hydroxymethyl)oxetan-3-yl]-1H-indol-5-yl}-2,2-difluoro-7-methyl-6,7-dihydro-2H-furo[2,3-f][1,3]benzodioxole-7-carboxamide]
EC50 [1]: 2700 nM
Maximum % activity (%) [1, 3]: 62%
EC50 [2]: 2560 nM
Maximum % activity (%) [2]: 58%

C[C@]1(C(=O)Nc2cc3cc(C4(CO)CC4)n(C[C@@H](O)CO)c3cc2F)COc2cc3c(cc21)OC(F)(F)O3 [Example 136, (7R)—N-{1-[(2R)-2,3-dihydroxypropyl]-6-fluoro-2-[1-(hydroxymethyl)cyclopropyl]-1H-indol-5-yl}-2,2-difluoro-7-methyl-6,7-dihydro-2H-furo[2,3-f][1,3]benzodioxole-7-carboxamide]
EC50 [1]: 745 nM
Maximum % activity (%) [1, 3]: 48%
EC50 [2]: 910 nM
Maximum % activity (%) [2]: 99%

CC(C)(CO)c1nc2cc(NC(=O)[C@@]3(C)COc4cc5c(cc43)OC(F)(F)O5)c(F)cc2n1C[C@@H](O)CO [Example 137, (7R)—N-{1-[(2R)-2,3-dihydroxypropyl]-6-fluoro-2-(1-hydroxy-2-methylpropan-2-yl)-1H-benzimidazol-5-yl}-2,2-difluoro-7-methyl-6,7-dihydro-2H-furo[2,3-f][1,3]benzodioxole-7-carboxamide]
EC50 [1]: 2580 nM
Maximum % activity (%) [1, 3]: 67%
EC50 [2]: 2060 nM
Maximum % activity (%) [2]: 72%

COc1ccc2c(c1)O[C@@H](c1cnc(C(=O)O)cn1)C[C@H]2NC(=O)[C@@]1(C)COc2cc3c(cc21)OC(F)(F)O3 [Example 144, 5-[(2R,4R)-4-{[(7R)-2,2-difluoro-7-methyl-6,7-dihydro-2H-furo[2,3-f][1,3]benzodioxole-7-carbonyl]amino}-7-methoxy-3,4-dihydro-2H-1-benzopyran-2-yl]pyrazine-2-carboxylic acid]
EC50 [1]: 550 nM
Maximum % activity (%) [1, 3]: 78%
EC50 [2]: 1330 nM
Maximum % activity (%) [2]: 157%

C[C@]1(C(=O)N[C@@H]2C[C@H](c3ccc(C(=O)O)cn3)Oc3cc(OC(F)(F)F)ccc32)COc2cc3c(cc21)OC(F)(F)O3 [Example 145, 6-[(2R,4R)-4-{[(7R)-2,2-difluoro-7-methyl-6,7-dihydro-2H-furo[2,3-f][1,3]benzodioxole-7-carbonyl]amino}-7-(trifluoromethoxy)-3,4-dihydro-2H-1-benzopyran-2-yl]pyridine-3-carboxylic acid]
EC50 [1]: 0.831 nM
Maximum % activity (%) [1, 3]: 91%
EC50 [2]: 3 nM
Maximum % activity (%) [2]: 118%
